Reference: patent publication US20140107062A1, “COMPOSITIONS AND METHODS FOR TREATING OR PREVENTING DISEASES OF BODY PASSAGEWAYS” (Aravasc Inc., priority 2007, published 2014)
In brackets after ≈: the same amount, converted by molar mass. Several values for one entry are separate records, joined by “and”; a condition that tells them apart may be missing. Identical values can stand only once. Like-named read-outs stand apart in the source and are kept apart here.

Tests used:
[1] = Solubility of analytes and polymer in solvents, dissolution media and water; format: physicochemical
[2] = Drug distribution 28-day PK study in naïve mice implanted with ETDS; format: in vivo; details: for Distribution of drugs from the implants in vivo: subcutaneous ETDS implants in mice
Protocol: An in vivo 28-day PK and drug distribution studies was conducted to understand drug distribution and the release profile/duration of drug-released from the different ETDS.
Nine mice were subcutaneously implanted with the same ETDS as implanted in the efficacy study. […] […] Three animals were terminated at each of these time points. Drug distribution in the plasma and skin tissue was analyzed by LC-MS. The preclinical stents were explanted and assayed for residual drug.

[3] = Stability of ICG and HCFU (pH, dissolution media, ETDS product); format: physicochemical
From the text: A suboptimal pH (4) for the dissomedia was chosen to preserve both and simultaneously quantitate them as they eluted.
A suboptimal but workable pH 4 was chosen to evaluate the release profile.

[4] = under physiological conditions and under acidic conditions (pH<4); cited from earlier work
[5] = cited from earlier work
[6] = Rat in situ intra-tracheal infusion of THX-polymer formulation; format: in vivo; details: 8 mg/kg
Protocol: A pilot study of in situ intra-tracheal infusion was performed to estimate tracheal and lung tissue levels after in situ intra-tracheal infusion of THX-polymer formulation.
Two rats (immediately after termination) were intra-tracheally infused over 30 mins with a THX-polymer formulation. The dose was 8 mg/kg and volume was 200 μl. After infusion these were wrapped for 2 hours in a warm heating pad. Tracheo-bronchial and lung tissue were harvested after wiping the lumen area of the tracheo-bronchial lumen with a tissue and spatula (to take off any adsorbed drug) at the end of 2 hours. Samples were frozen at −80 C until processed and analyzed by LC-MS. Sample extraction was conducted at AraVasc Inc. The processed samples were analyzed at Alta Analytical laboratories by LC-MS.
(§1) The equipment used was a SCIEX PE 3000.
(§2) The supernatant extract was subject to LCMS analysis.

[7] = test system: liver and lung cancer; details: preliminary reports, clinical trials; cited from earlier work
[8] = in vivo; details: rat
From the text: The animals were anesthetized while dosing. […] Samples were frozen until processed for LC-MS analysis.
as §1, §2

[9] = administered systemically; cited from earlier work
[10] = Drug levels in tumor-bearing mice at efficacy study termination; format: in vivo; details: for Drug Exposure, Tumor Tissue / Drug Exposure, Plasma: efficacy study; for Drug Exposure, Tumor Tissue: day 28-47; for Drug Exposure, Plasma: day 28-47, n = 8; for Explanted ETDS (Residual - efficacy): n = 3, ETDS 125 ± 25 ug total drug (1:1)
Protocol: The fast release mini-ETDS ensured the highest dose delivery. Coated or uncoated fast release preclinical ETDS were implanted in contact with tumor (300 mm^3), 14 days after inoculation of human esophageal-gastric cancer line NUGC4-GFP into nude mice. Tumor growth inhibition was evaluated over 47 day period post-implantation (FIG. 24). […] The projected in vivo dose/day based on an assumption of constant release after the initial ‘burst-effect’, is about 0.45 mg/kg/day.
A drug-dye distribution study was conducted in naïve mice. Plasma, skin tissue at implant site and skin tissue at contralateral site was sampled at defined intervals ranging from 2 hours-28 days. Similarly, plasma and tumor tissue was sampled at efficacy study termination at either 28 or […] days post implantation.
Drug-dye exposure levels in each of these biological samples was quantitated by LC-MS to obtain correlations between efficacious levels of exposure and release profile in naïve mice.
The LCMS analysis was conducted using validated bioanalytical methods discussed below except for HCFU. […] Samples were processed and analyzed immediately. Values may be underestimated.

[11] = DMF, organic solvent or mixture, read-out: Solubility
[12] = DMSO, organic solvent or mixture, read-out: Solubility
[13] = THF, organic solvent or mixture, read-out: Solubility
[14] = acetonitrile, organic solvent or mixture, read-out: Solubility
[15] = dissolution media, read-out: Solubility
[16] = Day 4, FR ETDS, individual mice
[17] = Day 4, fast release (FR) ETDS, individual mice
[18] = Day 7, FR ETDS, individual mice
[19] = Day 14, FR ETDS, individual mice
[20] = Day 28, FR ETDS, individual mice
[21] = mouse, plasma, subcutaneous, Day 28, FR ETDS, individual mice, read-out: Plasma Conc.
[22] = mouse, skin tissue at implantation site, subcutaneous, Day 14, FR ETDS, individual mice, read-out: Tissue Conc. site of implant
[23] = mouse, skin tissue at implantation site, subcutaneous, Day 28, FR ETDS, individual mice, read-out: Tissue Conc. site of implant
[24] = 200 μl, infused over 30 mins, harvested at 2 hours, individual rats

Compound | solubility [1, 11] | solubility [1, 12] | solubility [1, 13] | solubility [1, 14] | solubility [1, 15] | solubility ([1]; water, read-out: Solubility) | Distribution of drugs from the implants in vivo [2] | Tissue Conc. site of implant [2, 16] | Plasma Conc. [2, 17] | Plasma Conc. [2, 18] | Tissue Conc. site of implant [2, 18] | Plasma Conc. [2, 19] | Tissue Conc. site of implant [2, 19] | Plasma Conc. [2, 20] | Tissue Conc. site of implant [2, 20] | concentration at 28 day [2, 21] | concentration at 14 day [2, 22] | concentration at 28 day [2, 23] | pulmonary toxicities [9] | Explanted ETDS (Residual - efficacy) [10] | further results
O=c1[nH]cc(F)c(=O)[nH]1 [FLX, 5-fluorouracil] | 45.8 mg/mL (≈ 352 mM) | 59 mg/mL (≈ 454 mM) | 42.1 mg/mL (≈ 324 mM) | 1.81 mg/mL (≈ 13.9 mM) | 42.1 mg/mL (≈ 324 mM) | > 20 mg/mL | High levels | – | – | – | – | – | – | – | – | – | – | – | – | – | –
CC1(C)C(/C=C/C=C/C=C/C=C2\N(CCCCS(=O)(=O)O)c3ccc4ccccc4c3C2(C)C)=[N+](CCCCS(=O)(=O)[O-])c2ccc3ccccc3c21 [ICG, Indocyanine green] | – | – | – | – | – | – | remained confined to the site of implantation | 15.3 ng/g and 32.4 ng/g and 20.9 ng/g | 2.39 ng/mL and 3.76 ng/mL | 3.23 ng/mL and 0 ng/mL and 2.26 ng/mL | 13.2 ng/g and 12.4 ng/g and 35.9 ng/g | 2.23 ng/mL and 0 ng/mL (2×) | 13.1 ng/g and 14 ng/g | 2.24 ng/mL and 2.26 ng/mL | 11.8 ng/g and 11.9 ng/g | 2.39 ng/mL | 12.2 ng/g | 12.1 ng/g | – | – | Stability ([3]; acidic pH<4): not stable; Stability in the dissolution media ([3]; pH<3): unstable; concentration at 4 day ([2]; mouse, plasma, subcutaneous, Day 4, fast release (FR) ETDS, individual mice, read-out: Plasma Conc.): 3.89 ng/mL; half life t1/2 [4]: < 2 min; in-vivo protein binding [5]: about 95%
CCCCCOC(=O)Nc1nc(=O)n([C@@H]2O[C@H](C)[C@@H](O)[C@H]2O)cc1F [CPX, Capecitabine] | > 50 mg/mL | > 50 mg/mL | > 50 mg/mL | > 0.4 mg/mL | > 10 mg/mL | > 10 mg/mL | – | – | – | – | – | – | – | – | – | – | – | – | – | – | –
O=C1CCC(N2C(=O)c3ccccc3C2=O)C(=O)N1 (racemic) [THX, 2-(2,6-dioxo-3-piperidinyl)-1H-isoindole-1,3(2H)-dione] | 75.5 mg/mL (≈ 292 mM) | 56 mg/mL (≈ 217 mM) | 3.34 mg/mL (≈ 12.9 mM) | 0.79 mg/mL (≈ 3.06 mM) | 3.34 mg/mL (≈ 12.9 mM) | 1.5 mg/mL (≈ 5.81 mM) | – | 387 ng/g and 338 ng/g and 6410 ng/g | 0.95 ng/mL and 3.26 ng/mL and 0.00 ng/mL | 7.27 ng/mL and 9.27 ng/mL | 22.5 ng/g and 66.5 ng/g and 18.4 ng/g | 2.26 ng/mL and 7.55 ng/mL | 15.9 ng/g and 16.8 ng/g | 13.7 ng/mL and 7.79 ng/mL | 20.2 ng/g and 34.0 ng/g and 15.8 ng/g | 9.03 ng/mL | 30.9 ng/g | – | No pulmonary toxicities | – | Tissue Levels Lung [6, 24]: 0.75 μg/100 mg and 0.58 μg/100 mg; Tissue Levels Trachea [6, 24]: 211.21 μg/100 mg and 290.36 μg/100 mg; THX levels in tracheo-bronchial and lung tissue ([6]; in situ infusion (0.5 hr)): High levels; concentration at 2 h ([6]; rat, lung, other: in situ intra-tracheal infusion, 200 μl, infused over 30 mins, harvested at 2 hours, individual rats, read-out: Tissue Levels Lung): 5800 ng/g; disease control rates [7]: 8%-57%; response rates [7]: 4%-10%; concentration at 20 min ([8]; 4 mg/Kg): 190 ng/mL; concentration at 40 min ([8]; 4 mg/Kg): 440 ng/mL; THX levels in lung tissue ([8]; 12 mg/kg): High levels; THX levels in plasma ([8]; 12 mg/kg): low levels; concentration at 7 day ([2]; mouse, plasma, subcutaneous, Day 7, FR ETDS, individual mice, read-out: Plasma Conc.): 5.42 ng/mL
CC(=O)O[C@H]1C(=O)[C@@]2(C)[C@H]([C@H](OC(=O)c3ccccc3)[C@]3(O)C[C@H](OC(=O)[C@H](O)[C@@H](NC(=O)c4ccccc4)c4ccccc4)C(C)=C1C3(C)C)[C@]1(OC(C)=O)CO[C@@H]1C[C@@H]2O [PTX, Paclitaxel] | 154 mg/mL (≈ 181 mM) | 27.2 mg/mL (≈ 31.9 mM) | – | 44.3 mg/mL (≈ 51.9 mM) | 0.05 to 0.06 mg/mL (≈ 0.0586 to 0.0703 mM) | > 20 mg/mL | – | 18000 ng/g and 6270 ng/g and 6990 ng/g | BLOQ | BLOQ | 22000 ng/g and 10300 ng/g and 47000 ng/g | BLOQ | 16500 ng/g and 10400 ng/g and 21600 ng/g | BLOQ | 12800 ng/g and 10600 ng/g | – | – | 18900 ng/g | No pulmonary toxicities | 15.4 µg | solubility ([1]; THF): 41.7 mg/mL (≈ 48.8 mM); Drug Exposure, Tumor Tissue ([10]; PTX): 9,668 ng/gm; Drug Exposure, Plasma ([10]; PTX, tumor-bearing mice): 1.53 ng/gm; Average levels detected in plasma ([10]; PTX, tumor-bearing mice): 1.5 ng/mL; Explanted ETDS Conc. (residual drug) ([2]; Day 14 explanted FR ETDS): 12.30 µg and 14.82 µg and 15.13 µg; Drug Exposure, Plasma ([2]; PTX, naïve mice, day 28, n = 3): BLOQ; concentration at 28 day ([2]; mouse, subcutaneous tissue, subcutaneous, PTX, naïve mice, day 28, n = 3, read-out: Drug Exposure, Subcutaneous Tissue): 12100 ng/g
CCCCCCNC(=O)n1cc(F)c(=O)[nH]c1=O [HCFU, Carmofur] | > 50 mg/mL | > 50 mg/mL | > 50 mg/mL | > 0.4 mg/mL | 0.05 to 0.06 mg/mL (≈ 0.194 to 0.233 mM) | 0.02 to 0.03 mg/mL (≈ 0.0777 to 0.117 mM) | – | – | – | – | – | – | – | – | – | – | – | – | – | 2.1 µg | Drug Exposure, Tumor Tissue ([10]; HCFU): 54.1 ng/mL; Drug Exposure, Plasma ([10]; HCFU, tumor-bearing mice): 59 ng/mL and 58.97 ng/mL; Tumor tissue exposure at steady state, average ([10]; HCFU, termination day 28-47): 54 ng/gm; Stability in the dissolution media ([3]; pH>3): unstable; Stability ([3]; pH>4): not stable; Stability ([3]; physiological pH): limited stability; concentration at 28 day ([2]; mouse, plasma, subcutaneous, HCFU, naïve mice, day 28, n = 3, read-out: Drug Exposure, Plasma): 48.2 ng/mL; concentration at 28 day ([2]; mouse, subcutaneous tissue, subcutaneous, HCFU, naïve mice, day 28, n = 3, read-out: Drug Exposure, Subcutaneous Tissue): 43.3 ng/mL
